Activity calls are given as the source filed them. The calls are words filed in the database; no cut-off is given here.
Columns and labels:
[1] = system: SVEC4-10; assay: Inhibition of DAI-induced necroptosis in MCMV M45mutRHIM infected mouse SVEC4-10 cells assessed as increase in cell viability incubated for 18 hrs by Cell Titer-Glo luminescent cell viability assay; type: functional, cell-based
[2] = system: L929; assay: Inhibition of TNF-alpha induced necroptosis in mouse L929 cells assessed as increase in cell viability at 30 uM incubated for 18 hrs in presence of zVAD by Cell Titer-Glo luminescent cell viability assay; type: functional, cell-based
[3] = system: SVEC4-10; assay: Inhibition of TNF-induced necroptosis in mouse SVEC4-10 cells assessed as increase in cell viability incubated for 18 hrs in presence of zVAD by Cell Titer-Glo luminescent cell viability assay; type: functional, cell-based
[4] = system: L929; assay: Inhibition of TLR-3 induced necroptosis in mouse L929 cells assessed as increase in cell viability at 30 uM incubated for 18 hrs in presence of zVAD and poly(I:C) by Cell Titer-Glo luminescent cell viability assay; type: functional, cell-based
[5] = system: 3T3SA; assay: Induction of apoptosis in mouse 3T3SA cells assessed as cell death by measuring percent of PI positive cells incubated for 3 hrs in presence of TNF by PI staining based flow cytometric analysis (reference value: 10.7%); type: toxicity
[6] = system: 3T3SA; assay: Induction of apoptosis in mouse 3T3SA cells assessed as cell death by measuring percent of PI positive cells incubated for 8 hrs in presence of TNF by PI staining based flow cytometric analysis (reference value: 11.4%); type: toxicity
[7] = system: L929; assay: Inhibition of TLR-3 induced necroptosis in mouse L929 cells assessed as increase in cell viability at 10 uM incubated for 18 hrs in presence of zVAD and poly(I:C) by Cell Titer-Glo luminescent cell viability assay; type: functional, cell-based
[8] = system: L929; assay: Inhibition of TNF-alpha induced necroptosis in mouse L929 cells assessed as increase in cell viability at 10 uM incubated for 18 hrs in presence of zVAD by Cell Titer-Glo luminescent cell viability assay; type: functional, cell-based

CN1C(=O)C(Cc2c[nH]c3ccccc23)NC1=S (stereo not given)
inhibition [1]: inactive
inhibition [2]: Active
inhibition [3]: Active
inhibition [4]: inactive

C[C@@H]1CC([C@H](O)CC2CC(=O)NC(=O)C2)C(=O)[C@@H](C)C1 (stereo not given in full)
Activity [5]: 22%
Activity [6]: 60%

CC(C)(C)C(=O)N1N=CC[C@H]1c1ccccc1
inhibition [1]: inactive
inhibition [7]: inactive
inhibition [8]: Active
inhibition [3]: Active

Reference: ChEMBL document CHEMBL5649166, “RIP3 induces apoptosis independent of pronecrotic kinase activity” (Mol Cell, 2014)
